Reference: ChEMBL document CHEMBL1201862, “PubChem BioAssay data set” (2004)
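All cell lines were grown in 96-well plates and treated with compound for 48 hours. GI50 marks 50% less growth.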 Active and inactive are the calls of the source. Cut-off read from the data, not from the text of the source: active = GI50 up to about 1.1 µM and inactive = higher.

Legend:
Assay in all cases: NCI tumour cell line growth inhibition, 48 h
[1] = system: SF-295
[2] = system: U-251
[3] = system: SK-MEL-2
[4] = system: OVCAR-3
[5] = system: SK-MEL-5
[6] = system: HT-29
[7] = system: SK-MEL-28
[8] = system: SNB-75
[9] = system: CCRF-CEM
[10] = system: HCT-15
[11] = system: A549
[12] = system: COLO 205
[13] = system: MOLT-4
[14] = system: OVCAR-4
[15] = system: SN12C
[16] = system: A498
[17] = system: NCI-H226
[18] = system: SF-268
[19] = system: M19-MEL
[20] = system: SR
[21] = system: TK-10
[22] = system: HCT-116
[23] = system: KM12
[24] = system: HL-60
[25] = system: SF-539
[26] = system: UO-31
[27] = system: RPMI-8226
[28] = system: Malme-3M
[29] = system: HOP-92
[30] = system: NCI-H460
[31] = system: OVCAR-8
[32] = system: XF498
[33] = system: DMS-114
[34] = system: SW-620
[35] = system: ACHN
[36] = system: RXF 393
[37] = system: SNB-19
[38] = system: KM-20L2
[39] = system: EKVX
[40] = system: DLD-1
[41] = system: K562
[42] = system: SK-OV-3
[43] = system: HOP-18
[44] = system: NCI-H522
[45] = system: LXFL 529
[46] = system: M14
[47] = system: DMS-273
[48] = system: IGROV-1
[49] = system: 786-0
[50] = system: NCI-H23
[51] = system: CAKI-1
[52] = system: HCC 2998
[53] = system: LOX IMVI
[54] = system: UACC-257
[55] = system: OVCAR-5
[56] = system: UACC-62
[57] = system: HOP-62
[58] = system: SNB-78

O=NN(CCCl)C(=O)N[C@H]1CCCC[C@@H]1Cl
GI50 [1]: 47.1 µM (inactive) | GI50 [2]: 30.4 µM (inactive) | GI50 [3]: > 100 µM (inactive) | GI50 [4]: > 100 µM (inactive) | GI50 [5]: > 100 µM (inactive) | GI50 [6]: 79.6 µM (inactive) | GI50 [7]: > 100 µM (inactive) | GI50 [8]: 47 µM (inactive) | GI50 [9]: 19.6 µM (inactive) | GI50 [10]: > 100 µM | GI50 [11]: 61.5 µM (inactive) | GI50 [12]: > 100 µM (inactive) | GI50 [13]: 32.4 µM (inactive) | GI50 [14]: > 100 µM (inactive) | GI50 [15]: 88.1 µM (inactive) | GI50 [16]: > 100 µM (inactive) | GI50 [17]: > 100 µM (inactive) | GI50 [18]: 16.7 µM (inactive) | GI50 [19]: 39.7 µM (inactive) | GI50 [20]: 3.48 µM (inactive) | GI50 [21]: > 100 µM (inactive) | GI50 [22]: 50.6 µM (inactive) | GI50 [23]: > 100 µM (inactive) | GI50 [24]: 19.6 µM (inactive) | GI50 [25]: 24.9 µM (inactive) | GI50 [26]: > 100 µM (inactive) | GI50 [27]: 43.8 µM (inactive) | GI50 [28]: > 100 µM (inactive) | GI50 [29]: > 100 µM (inactive) | GI50 [30]: 29.4 µM (inactive) | GI50 [31]: > 100 µM (inactive) | GI50 [32]: > 100 µM (inactive) | GI50 [33]: 34.2 µM (inactive) | GI50 [34]: > 100 µM (inactive) | GI50 [35]: 57.7 µM (inactive) | GI50 [36]: > 100 µM (inactive) | GI50 [37]: > 100 µM (inactive) | GI50 [38]: > 100 µM (inactive) | GI50 [39]: > 100 µM (inactive) | GI50 [40]: > 100 µM (inactive) | GI50 [41]: 55.8 µM (inactive) | GI50 [42]: > 100 µM (inactive) | GI50 [43]: > 100 µM (inactive) | GI50 [44]: > 100 µM (inactive) | GI50 [45]: > 100 µM (inactive) | GI50 [46]: > 100 µM (inactive) | GI50 [47]: 62.7 µM (inactive) | GI50 [48]: > 100 µM (inactive) | GI50 [49]: 37.8 µM (inactive) | GI50 [50]: 71.6 µM (inactive) | GI50 [51]: > 100 µM (inactive) | GI50 [52]: > 100 µM (inactive)

CC(C)N1C(C)[C@@H](c2ccccc2)O[P@]1(=O)CC1=CCCCC1 (stereo not given in full)
GI50 [1]: 40.9 µM (inactive) | GI50 [2]: > 100 µM (inactive) | GI50 [3]: > 100 µM (inactive) | GI50 [4]: 62.7 µM (inactive) | GI50 [5]: 45.2 µM (inactive) | GI50 [6]: > 100 µM (inactive) | GI50 [7]: > 100 µM (inactive) | GI50 [8]: > 100 µM (inactive) | GI50 [9]: 35.6 µM (inactive) | GI50 [10]: > 100 µM | GI50 [53]: 74.1 µM (inactive) | GI50 [11]: > 100 µM (inactive) | GI50 [12]: 98.4 µM (inactive) | GI50 [54]: 68.1 µM (inactive) | GI50 [13]: 44.3 µM (inactive) | GI50 [15]: > 100 µM (inactive) | GI50 [16]: > 100 µM (inactive) | GI50 [17]: > 100 µM (inactive) | GI50 [18]: > 100 µM (inactive) | GI50 [19]: > 100 µM (inactive) | GI50 [20]: 44.5 µM (inactive) | GI50 [21]: > 100 µM (inactive) | GI50 [22]: > 100 µM (inactive) | GI50 [23]: > 100 µM (inactive) | GI50 [24]: 22.4 µM (inactive) | GI50 [25]: > 100 µM (inactive) | GI50 [26]: 74 µM (inactive) | GI50 [27]: 62.8 µM (inactive) | GI50 [28]: > 100 µM (inactive) | GI50 [29]: 42.2 µM (inactive) | GI50 [30]: 87.1 µM (inactive) | GI50 [31]: > 100 µM (inactive) | GI50 [32]: > 100 µM (inactive) | GI50 [33]: 49.5 µM (inactive) | GI50 [34]: 61.2 µM (inactive) | GI50 [35]: > 100 µM (inactive) | GI50 [36]: > 100 µM (inactive) | GI50 [37]: > 100 µM (inactive) | GI50 [38]: 94.8 µM (inactive) | GI50 [39]: 85.9 µM (inactive) | GI50 [40]: > 100 µM (inactive) | GI50 [55]: 88.5 µM (inactive) | GI50 [56]: 51.5 µM (inactive) | GI50 [41]: 49.3 µM (inactive) | GI50 [42]: > 100 µM (inactive) | GI50 [43]: > 100 µM (inactive) | GI50 [44]: 97.5 µM (inactive) | GI50 [45]: 92.5 µM (inactive) | GI50 [46]: 97.5 µM (inactive) | GI50 [48]: > 100 µM (inactive) | GI50 [49]: > 100 µM (inactive) | GI50 [50]: 82.8 µM (inactive) | GI50 [52]: 99.3 µM (inactive) | GI50 [57]: > 100 µM (inactive)

COC1=C(Br)C(=O)c2nc(C)ccc2C1=O
GI50 [1]: 20.4 µM (inactive) | GI50 [2]: 15.1 µM (inactive) | GI50 [3]: 16.2 µM (inactive) | GI50 [4]: 7.46 µM (inactive) | GI50 [5]: 18.1 µM (inactive) | GI50 [6]: 19.4 µM (inactive) | GI50 [7]: 18.4 µM (inactive) | GI50 [8]: 19.2 µM (inactive) | GI50 [9]: 0.871 µM (active) | GI50 [10]: 14.1 µM | GI50 [53]: 8.39 µM (inactive) | GI50 [11]: 20.3 µM (inactive) | GI50 [12]: 12.1 µM (inactive) | GI50 [54]: 13.6 µM (inactive) | GI50 [13]: 2.4 µM (inactive) | GI50 [14]: 13.3 µM (inactive) | GI50 [15]: 15.7 µM (inactive) | GI50 [16]: 22 µM (inactive) | GI50 [17]: 22.8 µM (inactive) | GI50 [18]: 17.5 µM (inactive) | GI50 [19]: 14.1 µM (inactive) | GI50 [20]: 3.56 µM (inactive) | GI50 [21]: 18.4 µM (inactive) | GI50 [22]: 8.18 µM (inactive) | GI50 [23]: 17.7 µM (inactive) | GI50 [24]: 0.993 µM (active) | GI50 [25]: 21.5 µM (inactive) | GI50 [26]: 18.5 µM (inactive) | GI50 [28]: 16.8 µM (inactive) | GI50 [29]: 7.18 µM (inactive) | GI50 [30]: 15.8 µM (inactive) | GI50 [31]: 6.73 µM (inactive) | GI50 [33]: 15 µM (inactive) | GI50 [34]: 8.15 µM (inactive) | GI50 [35]: 10.7 µM (inactive) | GI50 [36]: 11.2 µM (inactive) | GI50 [37]: > 40.9 µM (inactive) | GI50 [38]: 19 µM (inactive) | GI50 [39]: 19.3 µM (inactive) | GI50 [40]: 5.33 µM (inactive) | GI50 [55]: 20.4 µM (inactive) | GI50 [56]: 19 µM (inactive) | GI50 [41]: 8.67 µM (inactive) | GI50 [42]: 19.4 µM (inactive) | GI50 [58]: 18.7 µM (inactive) | GI50 [43]: 17.1 µM (inactive) | GI50 [44]: 6.97 µM (inactive) | GI50 [45]: 6.28 µM (inactive) | GI50 [46]: 15 µM (inactive) | GI50 [47]: 17.2 µM (inactive) | GI50 [48]: 19.6 µM (inactive) | GI50 [49]: 14.1 µM (inactive) | GI50 [50]: 12.7 µM (inactive) | GI50 [51]: 15.6 µM (inactive) | GI50 [52]: 18.1 µM (inactive) | GI50 [57]: > 44.6 µM (inactive)

CCCCCC(=O)OCCOCCOCCOCCOCCOCc1ccccc1
GI50 [1]: > 100 µM (inactive) | GI50 [2]: > 100 µM (inactive) | GI50 [3]: > 100 µM (inactive) | GI50 [4]: > 100 µM (inactive) | GI50 [5]: > 100 µM (inactive) | GI50 [7]: > 100 µM (inactive) | GI50 [10]: > 100 µM | GI50 [53]: > 100 µM (inactive) | GI50 [11]: > 100 µM (inactive) | GI50 [12]: > 100 µM (inactive) | GI50 [54]: > 100 µM (inactive) | GI50 [14]: > 100 µM (inactive) | GI50 [15]: > 100 µM (inactive) | GI50 [16]: > 100 µM (inactive) | GI50 [17]: > 100 µM (inactive) | GI50 [18]: > 100 µM (inactive) | GI50 [21]: > 100 µM (inactive) | GI50 [22]: > 100 µM (inactive) | GI50 [23]: > 100 µM (inactive) | GI50 [25]: > 100 µM (inactive) | GI50 [28]: > 100 µM (inactive) | GI50 [29]: > 100 µM (inactive) | GI50 [30]: > 100 µM (inactive) | GI50 [31]: > 100 µM (inactive) | GI50 [32]: > 100 µM (inactive) | GI50 [33]: > 100 µM (inactive) | GI50 [34]: > 100 µM (inactive) | GI50 [35]: > 100 µM (inactive) | GI50 [36]: > 100 µM (inactive) | GI50 [37]: > 100 µM (inactive) | GI50 [38]: > 100 µM (inactive) | GI50 [39]: > 100 µM (inactive) | GI50 [40]: > 100 µM (inactive) | GI50 [55]: > 100 µM (inactive) | GI50 [56]: > 100 µM (inactive) | GI50 [58]: > 100 µM (inactive) | GI50 [43]: > 100 µM (inactive) | GI50 [47]: > 100 µM (inactive) | GI50 [48]: > 100 µM (inactive) | GI50 [49]: > 100 µM (inactive) | GI50 [50]: > 100 µM (inactive) | GI50 [51]: > 100 µM (inactive) | GI50 [57]: > 100 µM (inactive)
